Data taken from ChEMBL document CHEMBL1126209, “Synthesis of a peptidyl 2,2-difluoro-3-aminopropionate” (Bioorg Med Chem Lett, 1992).
Residues, ends and D or L forms follow the SMILES beside them. *: point of attachment. Dansyl = CN(C)c1cccc2c(S(=O)(=O)*)cccc12; Cbz = O=C(OCc1ccccc1)*; CF3 = FC(F)(F)*

Molecular target: T1, Neutrophil elastase (Homo sapiens, UniProt P08246)
T1 sequence (P08246 whole entry): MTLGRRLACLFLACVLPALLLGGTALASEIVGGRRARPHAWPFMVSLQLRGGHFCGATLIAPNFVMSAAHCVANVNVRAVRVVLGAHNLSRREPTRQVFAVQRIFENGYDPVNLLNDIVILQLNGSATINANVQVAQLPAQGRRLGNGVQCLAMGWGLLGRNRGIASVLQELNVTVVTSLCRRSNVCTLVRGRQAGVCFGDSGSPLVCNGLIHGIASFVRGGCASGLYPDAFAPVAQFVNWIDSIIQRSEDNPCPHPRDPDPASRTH
Assay: Compound was evaluated In vitro for inhibition of human neutrophil elastase

Ki [nM] | Structure (SMILES)
> 300000 | CCOC(=O)C(F)(F)C(NC(=O)C1CCCN1C(=O)C(C)NC(=O)C(C)NC(=O)OC(C)(C)C)C(C)C (centres undefined)
44 | CC(C)[C@H](NC(=O)[C@@H]1CCCN1C(=O)[C@H](C)NC(=O)[C@H](C)NCC(=O)OC(C)(C)C)C(=O)C(F)(F)F
1 | CC(C)[C@H](NC(=O)[C@@H]1CCCN1C(=O)[C@H](C)NC(=O)[C@H](C)NC(=O)OCc1ccccc1)C(=O)C(F)(F)F (Cbz-AAPV-CF3)
10 | CC(C)[C@H](NC(=O)[C@@H]1CCCN1C(=O)[C@H](C)NC(=O)[C@H](C)NS(=O)(=O)c1cccc2c(N(C)C)cccc12)C(=O)C(F)(F)F (Dansyl-AAPV-CF3)
